Test results reported in patent US20230346827A1 (priority 2020, published 2023).

Experiments:
[1] = system: CD19+ B cells and PBMC + (α-IgM and TCR ligands); assay: BioMAP BT system; format: cell-based, human; conditions: annotated relative to vehicle controls
From the text: (§1) Cell types and stimuli used in each system are as follows: 3C system [HUVEC + (IL-1β, TNFα and IFNy)], 4H system [HUVEC + (IL-4 and histamine)], LPS system [PBMC and HUVEC + LPS (TLR4 ligand)], SAg system [PBMC and HUVEC + TCR ligands], BT system [CD19+ B cells and PBMC + (α-IgM and TCR ligands)], BF4T system [bronchial epithelial cells and HDFn + (TNFα and IL-4)], BE3C system [bronchial epithelial cells + (IL-1β, TNFα and IFNy)], CASM3C system [coronary artery smooth muscle cells + (IL-1 β, TNFα and IFNy)], HDF3CGF system [HDFn + (IL-1β, TNFα, IFNy, EGF, bFGF and PDGF-BB)], KF3CT system [keratinocytes and HDFn + (IL-1β, TNFα, IFNy and TGFβ)], MyoF system [differentiated lung myofibroblasts + (TNFα and TGFβ)] and Mphg system [HUVEC and M1 macrophages + Zymosan (TLR2 ligand)].
(§2) Systems are derived from either single cell types or co-culture systems. Adherent cell types are cultured in 96 or 384-well plates until confluence, followed by the addition of PBMC (SAg and LPS systems). […] Soluble factors from supernatants are quantified using either HTRF® detection, bead-based multiplex immunoassay or capture ELISA. Overt adverse effects of test agents on cell proliferation and viability (cytotoxicity) are detected by sulforhodamine B (SRB) staining, for adherent cells, and alamarBlue® reduction for cells in suspension. […]

human primary cells = assay: BioMAP Diversity PLUS panel (12 human primary cell-based systems)
Experimental: Four concentrations of LMW-DS (ILB®, Tikomed AB, Viken, Sweden, WO 2016/076780; 150 nM, 440 nM, 1.3 µM, 4 µM) were investigated in the BioMAP® Diversity PLUS panel by Eurofins.
Human primary cells in BioMAP systems are used at early passage (passage 4 or earlier) to minimize adaptation to cell culture conditions and preserve physiological signaling responses. All cells are from a pool of multiple donors (n = 2 - 6), commercially purchased and handled according to the recommendations of the manufacturers. Human blood derived CD14+ monocytes are differentiated into macrophages in vitro before being added to the Mphg system. Abbreviations are used as follows: Human umbilical vein endothelial cells (HUVEC), Peripheral blood mononuclear cells (PBMC), Human neonatal dermal fibroblasts (HDFn), B cell receptor (BCR), T cell receptor (TCR) and Toll-like receptor (TLR).
as §1
Systems are derived from either single cell types or co-culture systems. Adherent cell types are cultured in 96 or 384-well plates until confluence, followed by the addition of PBMC (SAg and LPS systems). The BT system consists of CD19+ B cells co-cultured with PBMC and stimulated with a BCR activator and low levels of TCR stimulation. […] Each plate contains drug controls (e.g., legacy control test agent colchicine at 1.1 µM), negative controls (e.g., non-stimulated conditions) and vehicle controls (e.g., 0.1% DMSO) appropriate for each system. Direct ELISA is used to measure biomarker levels of cell-associated and cell membrane targets. Soluble factors from supernatants are quantified using either HTRF® detection, bead-based multiplex immunoassay or capture ELISA. Overt adverse effects of test agents on cell proliferation and viability (cytotoxicity) are detected by sulforhodamine B (SRB) staining, for adherent cells, and alamarBlue® reduction for cells in suspension. For proliferation assays, individual cell types are cultured at subconfluence and measured at time points optimized for each system (48-hrs: 3C and CASM3C systems; 72-hrs: BT and HDF3CGF systems; 96-hrs: SAg system). Cytotoxicity for adherent cells is measured by SRB (24-hrs: 3C, 4H, LPS, SAg, BF4T, BE3C, CASM3C, HDF3CGF, KF3CT, and Mphg systems; 48-hrs: MyoF system), and by alamarBlue staining for cells in suspension (24-hrs: SAg system; 42-hrs: BT system) at the time points indicated.
Biomarker measurements in a test agent-treated sample are divided by the average of control samples (at least 6 vehicle controls from the same plate) to generate a ratio that is then log10 transformed. Significance prediction envelopes are calculated using historical vehicle control data at a 95% confidence interval.
Biomarker activities are annotated when 2 or more consecutive concentrations change in the same direction relative to vehicle controls, are outside of the significance envelope and have at least one concentration with an effect size > 20% (|log10 ratio| > 0.1). Biomarker key activities are described as modulated if these activities increase in some systems, but decrease in others. […]

[2] = system: HUVEC + (IL-4 and histamine); assay: BioMAP 4H system; format: cell-based, human; conditions: annotated relative to vehicle controls
From the text: as §1, §2

Question: How did the Decreased biomarker activity [1] turn out when sodium salt of dextran sulfate [LMW-DS] was run?
Answer: sIgG, sIL-17F

Question: And the Increased biomarker activity [1]?
Answer: sIL-17A

Question: What about the annotated readouts (human primary cells; 150 nM, 440 nM, 1.3 µM, 4 µM) of the same substance?
Answer: 25

Question: What about the “cytotoxicity for human primary cells” value (human primary cells; at the concentrations tested (150 nM - 4 µM)) of the same substance?
Answer: not cytotoxic

Question: What about the “thrombomodulin (TM)” value (human primary cells; hemostasis-related activity) of the same substance?
Answer: increased

Question: What about the CD69 (human primary cells; immunomodulatory activity) of the same substance?
Answer: increased

Question: What about the M-CSF (human primary cells; immunomodulatory activity) of the same substance?
Answer: decreased

Question: And the “secreted immunoglobulin G (sIgG)” value (human primary cells; immunomodulatory activity)?
Answer: decreased

Question: And the “soluble IL-17A (sIL-17A)” value (human primary cells; immunomodulatory activity)?
Answer: increased

Question: And the “Eotaxin 3 (Eot3)” value (human primary cells; inflammation-related activity)?
Answer: increased

Question: And the I-TAC (human primary cells; inflammation-related activity)?
Answer: decreased

Question: What about the IL-8 (human primary cells; inflammation-related activity) of the same substance?
Answer: increased

Question: What about the IP-10 (human primary cells; inflammation-related activity) of the same substance?
Answer: decreased

Question: What about the MCP-1 (human primary cells; inflammation-related activity) of the same substance?
Answer: decreased

Question: And the MIG (human primary cells; inflammation-related activity)?
Answer: decreased

Question: And the VCAM-1 (human primary cells; inflammation-related activity)?
Answer: decreased

Question: What about the sTNFα (human primary cells; inflammation-related activity) of the same substance?
Answer: decreased

Question: What about the EGFR (human primary cells; tissue remodeling activity) of the same substance?
Answer: increased

Question: And the MMP-1 (human primary cells; tissue remodeling activity)?
Answer: increased

Question: What about the PAI-1 (human primary cells; tissue remodeling activity) of the same substance?
Answer: increased

Question: And the uPAR (human primary cells; tissue remodeling activity)?
Answer: increased

Question: And the “antiproliferative effect on human primary endothelial cells” value (human primary cells; top concentration only (4 µM))?
Answer: modestly and selectively antiproliferative

Question: And the Increased biomarker activity [2]?
Answer: uPAR
